Data set [1] is classed as in vitro ADME. Here is the method:
The first preliminary tests carried out in accordance with the present invention with a view to developing a matrix transdermal therapeutic system for administration of vinpocetine led to transdermal therapeutic systems (TTSs) by means of which a skin flux (permeation rate in steady state) of 0.91 μg/cm^2×h could be achieved. In order to adjust the therapeutically required concentration of 2 to 3 ng/ml of vinpocetine in a patient's plasma, a transdermal therapeutic system that is designed for an application period of 24 hours would have to have an area of about 120 cm^2. For reasons of patient acceptance, however, the surface area of a transdermal therapeutic system should be kept as small as possible and, if possible, should not exceed 40 cm^2, preferably 20 cm^2.

For data set [2] the following is noted: cited from earlier work; for half-life: oral administration.
The conditions of data set [3]: 1% suspension of vinpocetine in ethanol and 1-menthol applied directly to human full-thickness skin in vitro; cited from earlier work.
For data set [4] the following is noted: cited from earlier work.
The conditions of data set [5]: pH value of 7.4; cited from earlier work.

Molecules are shown by their SMILES. ≈ marks a conversion by molar mass, not a printed value. Where two headings read alike, the source gives them in different places.

Turning to `CCOC(=O)C1=C[C@]2(CC)CCCN3CCc4c(n1c1ccccc41)[C@@H]32` [vinpocetine, ethyl apovincamin-22-oate], the “skin flux (permeation rate in steady state)” value in data set [1] was 0.91 μg/cm^2×h. The half-life result in data set [2] is given as “one to two”. Further, in data set [2] (oral, fasting or with meals), the “time to enter the blood stream after administration” value is recorded as “about half an hour”. In data set [2] (oral), the “time until excreted by the body almost completely” value was “eight”. The permeation rate in data set [3] was 6.45 μg/cm^2×h. Also, the water-solubility in data set [4] (room temperature) was 0.02 µg/mL.

In the case of `COc1nc(C)nc(Cl)c1NC1=NCCN1` [moxonidine, 4-chloro-N-(4,5-dihydro-1H-imidazol-2-yl)-6-methoxy-2-methyl-5-pyrimidinamine], the bioavailability entry in data set [2] (gastrointestinal absorption, not metabolised presystemically) is “about 90%”. In addition, in data set [2] (patient's plasma), the “therapeutically required / effective plasma level” value is recorded as “around 5.4 ng/ml”. In addition, the “proportion present in cationic form” value in data set [5] was “about 50%”. The water solubility in data set [4] (base, 22° C.) is 1.36 mg/mL (≈ 5.63 mM). Also, in data set [4] (ethanol or DMSO), the “solubility in ethanol or DMSO” value is “up to 100 mM”.

For the molecule `CCCN1C[C@H](CSC)C[C@@H]2c3cccc4[nH]cc(c34)C[C@H]21` [pergolide, D-6-n-propyl-8 β-methyl-mercaptomethyl-ergoline], the half-life in data set [2] was 27 h. In data set [4] (base, 22° C.), the water-solubility is 0.021 µg/mL.

The record behind these values is patent US9486417B2, “Transdermal therapeutic system for administering lipophilic and/or sparingly skin-permeable active substances” (LTS Lohmann Therapie-Systeme AG, priority 2005, dated 2016).
